Test results taken from ChEMBL document CHEMBL6087471, “A Collection of Novel Antitumor Agents That Regulate Lipid Metabolism in the Tumor Microenvironment” (J Med Chem, 2025).

Key:
Autotaxin = Autotaxin (Homo sapiens, UniProt Q13822)
Description: Inhibition of ATX (unknown origin)

MCF7 = assay: Antiproliferative activity against human MCF7 cells assessed as reduction in cell growth; assay type: functional, cell-based
Platelet glycoprotein 4 = Platelet glycoprotein 4 (Homo sapiens, UniProt P16671); assay: Inhibition of N-terminal Flag-tagged human CD36
Platelet glycoprotein 4, sequence (P16671 whole entry): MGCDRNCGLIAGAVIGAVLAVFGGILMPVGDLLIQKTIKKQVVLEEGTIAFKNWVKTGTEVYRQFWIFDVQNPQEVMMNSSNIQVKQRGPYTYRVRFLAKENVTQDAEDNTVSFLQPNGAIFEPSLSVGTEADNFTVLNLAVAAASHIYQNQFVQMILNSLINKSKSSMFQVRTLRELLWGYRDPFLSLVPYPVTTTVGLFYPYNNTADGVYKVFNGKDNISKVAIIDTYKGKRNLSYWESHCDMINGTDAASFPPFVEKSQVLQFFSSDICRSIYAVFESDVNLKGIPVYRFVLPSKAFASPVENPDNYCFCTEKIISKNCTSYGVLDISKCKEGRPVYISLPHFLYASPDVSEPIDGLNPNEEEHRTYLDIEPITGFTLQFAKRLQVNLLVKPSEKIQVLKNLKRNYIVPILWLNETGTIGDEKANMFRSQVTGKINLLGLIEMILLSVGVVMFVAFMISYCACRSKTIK

Bile acid receptor = target: T1, Bile acid receptor (Homo sapiens, UniProt Q96RI1); assay: Agonist activity at FXR (unknown origin)
T1 sequence (Q96RI1 whole entry): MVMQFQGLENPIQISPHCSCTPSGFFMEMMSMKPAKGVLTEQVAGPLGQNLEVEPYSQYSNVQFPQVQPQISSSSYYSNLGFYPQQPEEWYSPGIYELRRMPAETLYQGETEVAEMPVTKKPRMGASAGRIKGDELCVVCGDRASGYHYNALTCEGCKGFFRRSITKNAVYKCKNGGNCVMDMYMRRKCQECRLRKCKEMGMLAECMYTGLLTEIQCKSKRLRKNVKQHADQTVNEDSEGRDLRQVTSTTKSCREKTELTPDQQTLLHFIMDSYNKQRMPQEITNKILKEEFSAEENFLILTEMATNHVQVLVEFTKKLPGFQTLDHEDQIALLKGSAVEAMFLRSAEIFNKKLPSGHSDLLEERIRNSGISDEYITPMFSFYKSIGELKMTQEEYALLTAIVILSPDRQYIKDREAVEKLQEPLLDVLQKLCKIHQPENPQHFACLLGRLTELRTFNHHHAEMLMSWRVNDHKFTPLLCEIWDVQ

[1] = Inhibition of ACC1 (unknown origin); set-up: species or system Homo sapiens
[2] = Inhibition of CPT1 (unknown origin); set-up: species or system Homo sapiens
[3] = target: T2, Diacylglycerol O-acyltransferase 2 (Homo sapiens, UniProt Q96PD7); assay: Inhibition of DGAT2 (unknown origin)
T2 sequence (Q96PD7 whole entry): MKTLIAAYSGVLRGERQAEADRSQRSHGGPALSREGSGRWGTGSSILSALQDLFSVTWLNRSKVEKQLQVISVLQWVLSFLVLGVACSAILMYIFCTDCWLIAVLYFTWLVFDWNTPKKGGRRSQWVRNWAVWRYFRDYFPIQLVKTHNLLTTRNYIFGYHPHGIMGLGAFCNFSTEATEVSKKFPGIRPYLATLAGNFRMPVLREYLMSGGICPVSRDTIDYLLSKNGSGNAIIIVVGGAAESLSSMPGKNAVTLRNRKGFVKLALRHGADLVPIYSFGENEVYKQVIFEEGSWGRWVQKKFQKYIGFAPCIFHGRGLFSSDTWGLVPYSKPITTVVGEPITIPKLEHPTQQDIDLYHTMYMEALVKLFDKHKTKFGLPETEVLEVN

A549 = assay: Antiproliferative activity against human A549 cells; assay type: functional, cell-based
PC-3 = assay: Antiproliferative activity against human PC-3 cells; assay type: functional, cell-based
SK-OV-3 = assay: Antiproliferative activity against human SK-OV-3 cells; assay type: functional, cell-based
[4] = Binding affinity to rat liver mitochondria CPT1 assessed as inhibition constant measured for 6 mins by Liquid scintillation counting method
[5] = Inhibition of rat CPT2

C[C@H](CCC(=O)O)[C@H]1CC[C@H]2[C@@H]3[C@@H](O)C[C@@H]4C[C@H](O)CC[C@]4(C)[C@H]3CC[C@]12C [URSODIOL]
IC50 (Autotaxin): 2800 nM

CCCCCCCCCCC[C@@H](C[C@@H]1OC(=O)[C@H]1CCCCCC)OC(=O)[C@H](CC(C)C)NC=O [ORLISTAT]
IC50 (MCF7): 250 nM

CCCCCCCC/C=C\CCCCCCCC(=O)ON1C(=O)CC(S(=O)(=O)O)C1=O (stereo unspecified)
IC50 (Platelet glycoprotein 4): 4000 nM

Cc1cc(-c2nc3ccc(C(=O)O)cc3n2C)ccc1OCc1c(-c2c(Cl)cccc2Cl)noc1C(C)C
EC50 (Bile acid receptor): 13.4 nM

COc1ccccc1[C@H](Cn1c(=O)n(C(C)(C)C(=O)O)c(=O)c2c(C)c(-c3ncco3)sc21)OC1CCOCC1 [FIRSOCOSTAT]
IC50 [1]: 2.1 nM

COC(=O)c1cc(Cl)c(O)c(S(=O)(=O)Nc2cc(-c3ccccc3)c(F)cc2F)c1
IC50 [2]: 44 nM

CC(C)N(C(=O)n1nnn(-c2c(F)cccc2F)c1=O)c1ccc(C(=O)O)cc1Oc1ccccc1
IC50 (MCF7): 19 nM

Cc1cc(C)c(-c2[nH]nc(C)c2C)cc1C(=O)N1CC(c2ccc(C#N)cc2)C1
IC50 [1]: 20 nM

O=C(NC1(C(=O)N[C@@H]2CC(=O)c3ccccc3N(Cc3cc(C(F)(F)F)cc(C(F)(F)F)c3)C2=O)CC1)c1ccc(F)cc1
IC50 [3]: > 75.5 nM

CCOC(=O)c1sc2c(c1C)c(=O)n(CCO)c(=O)n2CCc1ccccc1
IC50 [1]: 3.9 nM

COc1ccc(CN2CCN(CCCSc3cc(C(C)(C)C)c(O)c(C(C)(C)C)c3)CC2)c(OC)c1OC
IC50 [2]: 50800 nM

Cc1sc2ncnc(NC3CCN(Cc4ccccc4)C3)c2c1C (stereo unspecified)
IC50 (MCF7): 0.3 nM

O=C(c1c2ccccc2cc2ccccc12)N1CCC(N2CCC[C@@H](C(=O)N3CCOCC3)C2)CC1
IC50 [1]: 116 nM

CCCCCCOc1cccc(OCCCCNC(=O)N[C@@H](CC(=O)O)CN(C)C)c1
IC50 [2]: 44 nM

CC(C)(CCCCCC(O)CCCCCC(C)(C)C(=O)O)C(=O)O [BEMPEDOIC ACID]
IC50 (A549): 24000 nM | IC50 (PC-3): 26000 nM | IC50 (SK-OV-3): 53000 nM

CCCCCCCCCCCCCCC[C@@]1(O)C[N+](C)(C)C[C@@H](CC(=O)[O-])O1
Ki [4]: 4200 nM

O=C(c1c2ccccc2cc2ccccc12)N1CCN(C2CCN(C(=O)N3CCOCC3)CC2)CC1
IC50 [1]: 239 nM

COc1ccc(CN2CCNCC2)c(OC)c1OC [TRIMETAZIDINE]
IC50 [2]: 759000 nM

C=C1C(=O)O[C@H](CCCCCCCC)[C@H]1C(=O)O
IC50 [1]: 460 nM

Cc1nc(-c2cc(C(=O)N3CCC(c4ccc(C#N)cc4)CC3)c(C)cc2C2CCC2)n[nH]1
IC50 [1]: 40 nM

CCCCCCCCCCCCCCNC(=O)N[C@H](CC(=O)[O-])C[N+](C)(C)C
IC50 [5]: 240 nM

CCc1nc2c(C)cc(-c3ccc(CN(CCO)CCO)cc3)cn2c1NC(=O)NCc1ccc(Cl)cc1
IC50 (Autotaxin): 3.98 nM

COc1cc(C(=O)N2CCC3(CC2)CC(=O)c2cc(-c4cncc(C(=O)O)c4)ccc2O3)cc2c1c(C)cn2C1CC1
IC50 [1]: 3 nM

CCCCCCCCCCCCCC(=O)Nc1ccc(CP(=O)(O)O)cc1
IC50 (Autotaxin): 5.6 nM

O=C1Nc2ccccc2-c2cc(c(F)cc2F)NS(=O)(=O)c2cc1cc(Cl)c2O
IC50 [2]: 69.7 nM

COCc1nc(C(F)(F)F)[nH]c1-c1cc(C(=O)N2CC(c3ccc(C#N)cc3)C2)c(C)cc1C
IC50 [1]: 40 nM

COc1ccc(-c2ccccc2)cc1NS(=O)(=O)c1cc(Cl)cc(Cl)c1O
IC50 [2]: 130 nM

CC(=O)N1CCC(C(=O)N2CCC(N3CCN(C(=O)c4cc(-c5ccc(C)cc5)nc(-c5ccc(C)cc5)c4)CC3)CC2)CC1
IC50 [1]: 76 nM

CC(C)(C)OC(=O)NC1(C(=O)N[C@@H]2CC(=O)c3ccccc3N(Cc3cc(C(F)(F)F)cc(C(F)(F)F)c3)C2=O)CC1
IC50 [3]: > 75.5 nM
